One test relates to mouse. Kind of test: Inhibition of apomorphine induced climbing in the mouse. It counts as in vivo. As to conditions: sc, apomorphine 1 mg/kg s.c., compounds given subcutaneously, climbing scored at 10, 20 and 30 minutes, I + number = inactive at that dose. How it is done:
The test is based on that described by Protais, P., Constantin, J. and Schwartz, J.C.
Apomorphine 1 mg/kg s.c. induces mice to climb the wall of a wire cage (inverted food hopper - 11 x 7.5 x 18 cm high). Mice acclimatised in their home cages in groups of 5 are placed under the hoppers immediately after the injection of apomorphine 1 mg/kg s.c. At 10, 20 and 30 minutes after injection climbing behaviour is scored. The mice are observed for 30 seconds and scored according to the position in which they spend the majority of time, score O - four paws on floor of cage; score 1 - fore paws only on walls; score 2 - all paws on wall of cage. The scores at all 3 times and for each mouse are summed and mice drug treated subcutaneously compared to mice receiving apomorphine only.
Compounds were also tested for their ability to inhibit apomorphine induced climbing in the mouse.

A further test concerns rat. Kind of test: Increase in intragastric pressure in the rat. Particulars: conscious restrained rats, subcutaneous administration, increase in intragastric pressure over 40 minute period after dosing. It counts as in vivo. How it is done: Intragastric pressure changes were recorded from previously starved conscious but retrained rats using a saline filled catheter inserted into the lumen of the stomach via a permanent gastric fistula. The catheter was connected to a physiological pressure transducer and pressure changes recorded on a hot wire pen recorder. In each animal a pre-dose period of 40 minutes was allowed to obtain a measure of spontaneous activity. An index of activity was obtained by measuring the average height of pressure waves during 10 minute periods. Values for 4 such periods were obtained during assessment of spontaneous activity and for the 40 minute period after the subcutaneous administration of the compounds. Students 't' test was applied to the difference in average values obtained for spontaneous and post-compound activity.

For orientation: ED50 means the midpoint of the dose-response relation. Regarding `COc1cc(N)c(Cl)cc1C(=O)NC1CN2CCC(c3ccccc3)CN2C1` (centres unmarked) [Example 8, 4-Amino-5-chloro-2-methoxy-N-(3-{7-phenyl-1,5-diaza-bicyclo[4,3,0]nonyl})benzamide], in the test on mouse, the ED50 is 4.5 mg/kg.

`COc1cc(N)c(Cl)cc1C(=O)NC1CCN2CCCCN2C1` (racemic) [Example 2, (±) 4-Amino-5-chloro-2-methoxy-N-(3-{1,6-diazabicyclo [4,4,0]decyl}) benzamide]: in the test on rat (Rattus norvegicus, sc, 40 min, read-out: Dose mg/kg Subcutaneously (minimum dose for activity)), the minimal effective dose turned out to be 1 mg/kg. Also, the ED50 with mouse was 110 mg/kg.

For the compound “(±) 4-Amino-5-chloro-2-methoxy-N-(7 or 8-{2- methyl-1,5-diazabicyclo[4,3,0]nonyl})benzamide [Example 15]”, in the test with rat, the “Dose mg/kg Subcutaneously (minimum dose for activity)” value was 1.0 mg/kg.

As for “(±) 4-Amino-5-chloro-2-methoxy-N-(7 or 8- {2-methyl-1,5-diazabicyclo[4,3,0]nonyl})benzamide [Example 14]”, the “Dose mg/kg Subcutaneously (minimum dose for activity)” value in the test on rat was 0.5 mg/kg.

Source of the values: patent publication EP0047620A1, “Aryl diazabicyclyl amides, a process for their preparation and use” (BEECHAM GROUP PLC, priority 1980, dated 1982).
